Laboratory results as given in EPA's ToxValDB 9.5.
“And” between values parts separate entries of the source, which are not always exact repeats. Identical values can stand only once.

What was measured:
Rattus norvegicus [1] = details: M/F
Oryctolagus sp. = details: for LD50: acute
Rattus norvegicus [2] = details: for LD50 / LC50: acute
Rattus norvegicus [3] = details: Hershberger, duration: 10 days, oral, gavage, Wistar
[4] = subchronic, duration: 90 days, oral, diet, Sprague-Dawley
[5] = chronic, inhalation, increased kidney, adrenal and pituitary weight
[6] = developmental, inhalation, Reduced maternal weight gain
[7] = subchronic, duration: 90 days, oral, diet, Wistar
[8] = reproduction developmental, oral, gavage, Sprague-Dawley
[9] = subchronic, duration: 13 weeks, oral, gavage, Sprague-Dawley
[10] = subchronic, duration: 90 days, oral, gavage, Sprague-Dawley
[11] = reproduction developmental, duration: 4 weeks, inhalation, particle, Sprague-Dawley
[12] = short-term, duration: 4 weeks, oral, diet, Crl:CD(SD)

Question: COC(=O)Nc1cccc(OC(=O)Nc2cccc(C)c2)c1 [Phenmedipham] was tested. Which NOAEL (Rattus norvegicus [1]; chronic, duration: 2 years, oral, diet, no effects) did it give?
Answer: Its NOAEL is 25 mg/kg-day.

Question: Which results are given for CCCC[N+](CC)(CCCC)CCCCCC[N+](CC)(CCCC)CCCC.[OH-].[OH-]?
Answer: LD50 (Oryctolagus sp.; dermal, New Zealand): 22.4 mg/kg; LD50 (Rattus norvegicus [2]; oral, gavage, Sprague-Dawley): 350 mg/kg

Question: How did the LEL (Rattus norvegicus [1]; reproduction developmental, oral, reproductive toxicity) turn out when CC(C)=CC1C(C(=O)OCc2coc(Cc3ccccc3)c2)C1(C)C (stereo unspecified) [Resmethrin] was run?
Answer: The LEL was 25 mg/kg-day.

Question: With CCCC(c1cc(C(C)(C)C)c(O)cc1C)c1cc(C(C)(C)C)c(O)cc1C [4,4'-Butane-1,1-diylbis(2-tert-butyl-5-methylphenol)] as the molecule, how does the LD50 (Oryctolagus sp.; dermal, New Zealand) read?
Answer: Its LD50 is > 7940 mg/kg.

Question: And the LD50 (Rattus norvegicus [2]; oral, gavage, Sprague-Dawley)?
Answer: The LD50 was > 7940 mg/kg.

Question: And the NOAEL (Rattus norvegicus [2]; reproduction developmental, duration: 90 days, oral, diet, M, Sprague-Dawley)?
Answer: The NOAEL was 100 ppm.

Question: What about the LOAEL (Rattus norvegicus [2]; [4]) of the same molecule?
Answer: The LOAEL was 48 mg/kg-day.

Question: What about the NOAEL (Rattus norvegicus [2]; [4]) of the same molecule?
Answer: The NOAEL was 9.6 mg/kg-day.

Question: And the NOEL (Rattus norvegicus [3]; inactive + Negative + Negative + anti-androgenic + negative)?
Answer: Its NOEL is 125 mg/kg-day.

Question: And the NOEL (Rattus norvegicus [3]; inactive + Negative + Negative + anti-androgenic + negative / effects on thyroid at 125 (initial increase in T4 at 5))?
Answer: Its NOEL is 125 mg/kg-day.

Question: Which LD50 (Oryctolagus sp.; dermal, New Zealand) does the source give for OC1CCCCC1 [Cyclohexanol] here?
Answer: Its LD50 is ≥ 501 mg/kg and ≤ 794 mg/kg.

Question: And the LC50 (Rattus norvegicus [2]; Inhalation, Sprague-Dawley)?
Answer: The LC50 was > 3.63 µg/mL.

Question: And the LD50 (Rattus norvegicus [2]; oral, gavage, Carworth Wistar)?
Answer: Its LD50 is 2060 mg/kg.

Question: What about the LD50 (Rattus norvegicus [2]; oral, gavage, Sprague-Dawley) of the same molecule?
Answer: The LD50 was 1550 mg/kg.

Question: What about the NOAEL (Rattus norvegicus [2]; developmental, inhalation, Sprague-Dawley) of the same molecule?
Answer: Its NOAEL is 614 mg/m3.

Question: What about the NOAEL (Rattus norvegicus [2]; reproduction developmental, duration: 10 weeks, inhalation, Sprague-Dawley, generation: F0) of the same molecule?
Answer: Its NOAEL is 614 mg/m3.

Question: What about the NOAEL (Rattus norvegicus [2]; reproduction developmental, duration: 10 weeks, inhalation, Sprague-Dawley, generation: F1) of the same molecule?
Answer: Its NOAEL is 614 mg/m3.

Question: And the NOAEL (Rattus norvegicus [2]; reproduction developmental, duration: 13 weeks, inhalation, Sprague-Dawley)?
Answer: The NOAEL was 614 mg/m3.

Question: Which results are given for FC(F)Cl [Chlorodifluoromethane]?
Answer: LOAEL (Rattus norvegicus [1]; [5]): 177000 mg/m3; NOAEL (Rattus norvegicus [1]; [5]): 35400 mg/m3; LOAEL (Rattus norvegicus [1]; [6]): 177000 mg/m3; NOAEL (Rattus norvegicus [1]; [6]): 3540 mg/m3

Question: How did the LD50 (Oryctolagus sp.; dermal, New Zealand) turn out when CCNc1ccccc1 [N-Ethylaniline] was run?
Answer: Its LD50 is > 2000 mg/kg.

Question: What about the LD50 (Rattus norvegicus [2]; dermal) of the same molecule?
Answer: Its LD50 is 1920 mg/kg.

Question: And the LC50 (Rattus norvegicus [2]; inhalation, Sprague-Dawley)?
Answer: The LC50 was ≥ 1.13 µg/mL and ≤ 1.48 µg/mL.

Question: And the LD50 (Rattus norvegicus [2]; oral)?
Answer: Its LD50 is 300 mg/kg.

Question: What about the LD50 (Rattus norvegicus [2]; oral, gavage, Sprague-Dawley) of the same molecule?
Answer: Its LD50 is ≥ 332 mg/kg and ≤ 402 mg/kg.

Question: For CCCCCCCCCCCCN(C)C [N,N-Dimethyldodecan-1-amine], which LD50 (Oryctolagus sp.; dermal, occlusive, New Zealand) is on record?
Answer: Its LD50 is 5000 mg/kg.

Question: And the LD50 (Rattus norvegicus [2]; oral, gavage, Wistar)?
Answer: Its LD50 is 1220 mg/kg and 790 mg/kg.

Question: For CCCCCCC=O [Heptanal], which LD50 (Oryctolagus sp.; dermal) is on record?
Answer: Its LD50 is > 5000 mg/kg.

Question: And the LC50 (Rattus norvegicus [2]; Inhalation, Sprague-Dawley)?
Answer: Its LC50 is > 4.7 µg/mL.

Question: And the LD50 (Rattus norvegicus [2]; oral, gavage)?
Answer: The LD50 was > 5000 mg/kg.

Question: And the NOAEL (Rattus norvegicus [2]; reproduction developmental, oral, gavage, F, Wistar)?
Answer: The NOAEL was 2050 mg/kg-day.

Question: What about the LOAEL (Rattus norvegicus [2]; [7]) of the same molecule?
Answer: Its LOAEL is 150 mg/kg-day.

Question: And the NOAEL (Rattus norvegicus [2]; [7])?
Answer: The NOAEL was 37 mg/kg-day.

Question: Which LD50 (Oryctolagus sp.; dermal) does the source give for CCOP(=O)(CN(CCO)CCO)OCC [Diethyl (N,N-bis(2-hydroxyethyl)amino)methanephosphonate] here?
Answer: The LD50 was > 2000 mg/kg.

Question: And the LD50 (Oryctolagus sp.; dermal, Albino)?
Answer: The LD50 was > 2000 mg/kg.

Question: And the LD50 (Rattus norvegicus [2]; oral, gavage, Sprague-Dawley)?
Answer: The LD50 was > 5000 mg/kg.

Question: And the LOAEL (Rattus norvegicus [2]; [8])?
Answer: The LOAEL was > 750 mg/kg-day.

Question: And the NOAEL (Rattus norvegicus [2]; [8])?
Answer: The NOAEL was 750 mg/kg-day.

Question: And the LOAEL (Rattus norvegicus [2]; [9])?
Answer: Its LOAEL is > 500 mg/kg-day.

Question: And the NOAEL (Rattus norvegicus [2]; [9])?
Answer: The NOAEL was 500 mg/kg-day.

Question: Which results are given for O=P(OC(CCl)CCl)(OC(CCl)CCl)OC(CCl)CCl [Tris(1,3-dichloro-2-propyl) phosphate]?
Answer: LD50 (Oryctolagus sp.; dermal): > 4640 mg/kg; LD50 (Oryctolagus sp.; oral, gavage, Dutch-belted): 6800 mg/kg; LD50 (Rattus norvegicus [2]; oral, gavage, Sprague-Dawley): 3160 mg/kg; NOAEL (Rattus norvegicus [2]; chronic, duration: 12 months, oral, diet, Sprague-Dawley): 5 mg/kg-day; NOAEL (Rattus norvegicus [2]; developmental, duration: 10 days, oral, gavage, Sprague-Dawley): 100 mg/kg-day; NOAEL (Rattus norvegicus [2]; reproduction developmental, duration: 10 days, oral, gavage, F, Sprague-Dawley): 25 mg/kg-day

Question: For O=C(OCC1CCC2OC2C1)C1CCC2OC2C1 (stereo unspecified) [ECC], which LD50 (Oryctolagus sp.; dermal, occlusive, New Zealand) is on record?
Answer: Its LD50 is > 20 mg/kg.

Question: What about the LD50 (Rattus norvegicus [2]; oral, gavage, Sprague-Dawley) of the same molecule?
Answer: Its LD50 is 5000 mg/kg.

Question: What about the NOAEL (Rattus norvegicus [2]; developmental, duration: 14 days, oral, gavage, Sprague-Dawley) of the same molecule?
Answer: Its NOAEL is 125 mg/kg-day.

Question: What about the NOAEL (Rattus norvegicus [2]; reproduction developmental, duration: 14 days, oral, gavage, F, Sprague-Dawley) of the same molecule?
Answer: Its NOAEL is 25 mg/kg-day.

Question: And the NOAEL (Rattus norvegicus [2]; reproduction developmental, duration: 90 days, oral, gavage, Sprague-Dawley, generation: F0)?
Answer: Its NOAEL is ≥ 500 mg/kg-day.

Question: What about the LOAEL (Rattus norvegicus [2]; short-term, duration: 14 days, oral, gavage, Sprague-Dawley) of the same molecule?
Answer: Its LOAEL is 100 mg/kg-day.

Question: What about the LOAEL (Rattus norvegicus [2]; [10]) of the same molecule?
Answer: Its LOAEL is 50 mg/kg-day.

Question: What about the NOAEL (Rattus norvegicus [2]; [10]) of the same molecule?
Answer: Its NOAEL is 5 mg/kg-day.

Question: c1ccc2sc(SN3CCOCC3)nc2c1 [N-Oxydiethylene-2-benzothiazylsulfenamide] was tested. Which LD50 (Oryctolagus sp.; dermal, occlusive, New Zealand) did it give?
Answer: The LD50 was > 5010 mg/kg.

Question: What about the NOAEL (Oryctolagus sp.; reproduction developmental, duration: 21 days, dermal, New Zealand) of the same molecule?
Answer: Its NOAEL is 2000 mg/kg-day.

Question: And the LC50 (Rattus norvegicus [2]; inhalation, particle)?
Answer: Its LC50 is > 151 µg/mL.

Question: What about the LD50 (Rattus norvegicus [2]; oral) of the same molecule?
Answer: The LD50 was 7000 mg/kg.

Question: And the LD50 (Rattus norvegicus [2]; oral, gavage, Sprague-Dawley)?
Answer: The LD50 was 12600 mg/kg and > 7940 mg/kg.

Question: What about the LD50 (Rattus norvegicus [2]; oral, gavage, Wistar) of the same molecule?
Answer: The LD50 was > 10000 mg/kg.

Question: What about the NOAEL (Rattus norvegicus [2]; developmental, duration: 10 days, oral, gavage) of the same molecule?
Answer: The NOAEL was 1000 mg/kg-day.

Question: What about the NOAEL (Rattus norvegicus [2]; developmental, duration: 21 days, oral, diet, Wistar) of the same molecule?
Answer: The NOAEL was 270 mg/kg-day.

Question: And the LOAEL (Rattus norvegicus [2]; [11])?
Answer: Its LOAEL is 10.2 mg/m3.

Question: What about the NOAEL (Rattus norvegicus [2]; [11]) of the same molecule?
Answer: Its NOAEL is 9.8 mg/m3.

Question: And the NOAEL (Rattus norvegicus [2]; reproduction developmental, duration: 10 days, oral, gavage, F)?
Answer: The NOAEL was 100 mg/kg-day.

Question: And the NOAEL (Rattus norvegicus [2]; reproduction developmental, duration: 21 days, oral, diet, F, Wistar)?
Answer: The NOAEL was 270 mg/kg-day.

Question: What about the LOAEL (Rattus norvegicus [2]; [12]) of the same molecule?
Answer: The LOAEL was 500 mg/kg-day.

Question: And the NOAEL (Rattus norvegicus [2]; [12])?
Answer: Its NOAEL is 200 mg/kg-day.
